Source: PMC12364333, “Degradation of catecholate, hydroxamate, and carboxylate model siderophores by extracellular enzymes” (PLOS One, 2025)

Test system: T1, phenol oxidase (a tyrosinase)
T1 construct: gene PPO3
Experiment: initial rates of product formation ([…] h); Lineweaver-Burk plot
Format: biochemical, Agaricus bisporus
Details: O2 as oxidant; buffered at pH 7.0 (25 mM phosphate) and 20 °C in the general protocol; 0.01-1 mM protochelin; apo siderophore

SMILES: O=C(NCCCCNC(=O)[C@H](CCCCNC(=O)c1cccc(O)c1O)NC(=O)c1cccc(O)c1O)c1cccc(O)c1O [protochelin]
- Km: 430 µM
